# Results taken from a melting point compilation (Tetko et al.; mined from patent text by program, amines drawn as free bases though some values may be those of a salt).
row,Structure (SMILES),melting point [°C]
1,Cc1nc(Cl)c(-c2ccc(Cl)cc2)c(NS(=O)(=O)c2ccc(Cl)cc2)n1,196 to 197
2,CCCCc1nn(-c2cc(N)ccc2Cl)c(=O)n1Cc1ccc(-c2cc(CCC)ccc2S(=O)(=O)NC(C)(C)C)cc1F,85 to 87
3,CS(=O)(=O)c1cccc(C2=C(c3ccccc3)C(=O)N(c3ccc(F)cc3)C2)c1,207 to 209
4,CC(C)(C)OC(=O)Nc1ccc(C#Cc2ccc(F)cc2)cc1N,180
5,CCCCCCN(CCCCCC)c1ccc(C=CC2=C(C#N)C(=C(C#N)C#N)OC2(C)C)s1,172
6,CCc1ccc(C#Cc2ccc(Br)cc2)cc1,117
7,CC(C)Cc1ccc(CCc2cc3c(s2)NC(=O)C(c2ccccc2)N=C3c2ccccc2Cl)cc1 (stereo not drawn),201 to 203
8,CC(C)Nc1cccnc1N1CCN(C(=O)c2ccc(C(=O)N3CCN(C)CC3)cc2)CC1,158 to 160
9,COCCOc1ccc(/C=C/C(=O)O)c(NC(=O)c2ccc(Cl)cc2Cl)c1,243 to 245
10,CCc1nc2c(N)nc3ccc(O)cc3c2n1C,> 240
11,CCOC(=O)c1ccc(N(CCOc2ccc(C#N)c3ccccc23)C(=O)C(F)(F)F)cc1,150 to 151
12,CS(=O)(=O)c1cnc(NC(=O)c2cccc(O)c2)s1,271 to 272
13,Cc1ccc(C)n1-c1ccc(C2(C#N)CCCC2)cc1,117 to 120
14,COc1cc2nc(N3CCN(C(=O)CCCO)CC3)nc(N)c2cc1OC,241 to 243
15,O=C(NN=Cc1ccc(C(F)(F)F)cc1)c1ccc(O)cc1,260
16,CC1(C)OCc2cc(C(O)c3c[nH]cn3)ccc2O1 (stereo not drawn),96
17,O=[N+]([O-])c1ccc(CN2CCN(c3ccc(F)cc3)CC2)cc1,139 to 141
18,COc1cc(CC#N)c([N+](=O)[O-])cc1C(F)(F)F,103 to 104
19,CCCCNC(=O)Nc1ccc(-n2ccnc2)cc1C(=O)NCC1CCN(C(c2ccccc2)c2ccccc2)CC1,197 to 199
20,O=C(Cc1ccccc1)c1ccc(Cl)c(Cl)c1,84 to 85
21,CC1SC(=S)N(C)N=C1c1ncc(Cl)cc1F (stereo not drawn),107 to 112
22,Cn1c(CC(=O)O)cc(Cl)c1C(=O)c1ccc(S(C)=O)cc1 (stereo not drawn),222 to 223
23,O=C(O)CCCc1cc2nc(Cl)ccc2n1S(=O)(=O)c1cccc(-c2ccccc2)c1,147 to 149
24,COc1ccc(C2(C#N)CC=C(C(=O)O)CC2)cc1OC1CCCC1 (stereo not drawn),161 to 163
25,Fc1ccc(Nc2ncnc3cnc(NCC45CCN(CC4)CC5)nc23)cc1Cl,221 to 223

row,Structure (SMILES),melting point [°C]
1,N#Cc1c(C(N)=O)nn2c(-c3cccc(C(F)(F)F)c3)ccnc12,236 to 238
2,CS(=O)(=O)c1ccc(-n2nc(C(F)(F)F)nc2-c2ccc(Br)cc2)nc1,143 to 145
3,Nc1cc(Oc2cc(Oc3cc(N)cc(C(F)(F)F)c3)cc(C(F)(F)F)c2)cc(C(F)(F)F)c1,82 to 84
4,CN(C)c1ccc2sc(C=O)cc2c1,105 to 106
5,N#Cc1cc(NC(=O)c2cc3ccccc3s2)ccc1N1CCCCC1,219 to 245
6,CC(N)=CC(=O)NCCN1CCOCC1,86 to 93
7,O=C(c1ccccc1)N1CCc2[nH]c3cccc(-c4ccccc4OC4CCCC4)c3c2CC1,187 to 189
8,OCC(CO)Cc1cccc(Br)c1,61 to 63
9,O=c1c(Cl)c(OCc2ccc(Cl)cc2Cl)cnn1-c1ccc(Cl)cc1,168 to 169
10,Cn1c(=O)c2c(-c3ccccc3)n(-c3cc([N+](=O)[O-])ccc3N)cc2n(C)c1=O,> 300
11,CCc1nc(NC(C)C)c([N+](=O)[O-])c(SC2CCCCC2)n1,69 to 71
12,O=c1c(-c2ccccc2)c(SCc2ccncc2)oc2cc(OCc3ccccc3)ccc12,169 to 170
13,CC1(C)CC(n2cc(C#N)c3ccccc32)c2cc(C#N)ccc2O1 (stereo not drawn),175 to 178
14,CCC1(C)NC(=O)C(CCSC)O1 (stereo not drawn),62
15,NCCc1ncccc1C(N)=O,54
16,Fc1ccc(-c2ncn(C3CCCCO3)c2-c2ccc(F)cc2)cc1 (stereo not drawn),149 to 152
17,CCCS(=O)c1ncn(C(=O)N(CC)CC)n1 (stereo not drawn),50.5 to 51.5
18,CC(C(=O)O)c1ccc2c(c1)C(=O)Cc1ccccc1S2 (stereo not drawn),130 to 132
19,CSc1ccc(-c2cc(Br)nn2-c2ccc(F)cc2)cc1,98 to 99
20,OC(Cc1ccc(F)cc1)(Cn1cncn1)c1ccccc1 (stereo not drawn),116 to 118
21,CCCCOCCOc1ccc(-c2ccc3c(c2)C=C(C(=O)O)CCN3CC2CCC2)cc1,110 to 112
22,O=c1c2ccc(OCC3CO3)cc2oc2ccc3cccc(O)c3c12 (stereo not drawn),191 to 193
23,Fc1ccccc1-c1n[nH]c(-c2ccccc2C(F)(F)F)n1,153 to 155
24,O=C1NC(=S)SC1=Cc1cccc(Cl)c1Cl,203 to 204
25,Cc1[nH]c2ccc(C(=O)c3ccccc3)cc2c1C=O,227 to 230

row,Structure (SMILES),melting point [°C]
1,CCOC(=O)N(N)C(=O)c1ccccc1O,126
2,COC(=O)[C@H](Cc1ccccc1)NC(=O)CCC(=O)[C@H](Cc1ccccc1)NC(=O)c1ccccc1,106 to 109
3,CN1CCCN(Cc2c(Cl)ccc(C(=O)C3=C(Sc4ccccc4)CCCC3=O)c2Cl)C1=O,140
4,OC(C(=Cn1cncn1)c1ccc(Cl)cc1)c1ccccc1C(F)(F)F (stereo not drawn),161
5,COC(=O)c1ccc2cc(-c3cc4c(c(C56CC7CC(CC(C7)C5)C6)c3)OCO4)ccc2c1,217 to 220
6,CC(C)(C)C1=C(C#N)C(c2cccc3nonc23)c2c[nH]nc2N1 (stereo not drawn),204
7,CC(C)[C@H](NC(=O)[C@@H](CSC(=O)c1ccccc1)SC(=O)c1ccccc1)C(=O)N1CCC[C@H]1C(=O)O,85 to 93
8,CCOC(=O)c1sc(SC)c2c1CCc1sc(-c3ccccc3)nc1-2,153 to 154
9,O=C1NC(=O)C(Cc2ccc(OCCn3nc(-c4ccccc4)c4ccccc4c3=O)cc2)S1 (stereo not drawn),198
10,CCOn1nnnc1SC[PH](=O)O,120 to 122
11,c1cnc2c(c1)Cc1ncccc1-2,85
12,Cn1c(Nc2c(Cl)cccc2Cl)nc2cc(C(=O)NC3CCC(C)(C)CC3)ccc21,189 to 190
13,CCCOc1nsc(N=CN(C)C)c1C#N,117 to 118
14,CCOCc1nc2c(N)nc3cc(-c4ccsc4)ccc3c2n1CC(C)C,187 to 189
15,CC(C)Oc1ccc(/C=C/C=C/CO)cc1,91 to 92
16,NC(=O)CCCSc1cccc(Br)n1,87 to 88
17,CNc1ccc(CCl)cc1[N+](=O)[O-],126 to 128
18,CC(C)(C)OC(=O)N[C@H](CNC(=O)Nc1ccccc1)Cc1ccccc1,154
19,CCCCCCCCCCOCCCN=C=O,78 to 82
20,C#CC(C)(O)c1ccc(Oc2ccc(Cl)cc2)cc1 (stereo not drawn),55 to 57
21,Cc1nc(-n2ccc(NC(=O)c3ccccc3)cc2=O)sc1C(=O)NCc1ccccc1,246 to 248
22,CCOc1ccc([N+](=O)[O-])c(NCCN2CCOCC2)c1,107
23,Cc1c(C(=O)OCc2ccccc2)sc(NC(=O)C(F)(F)F)c1C(=O)OC(C)(C)C,136 to 138
